Experimental data published in US9181258B2, “Substituted 3,4-dihydropyrrolo[1,2-a]pyrazin-1(2H)-ones as protein kinase inhibitors” (NERVIANO MEDICAL SCIENCES S.R.L., priority 2011, dated 2015).
Counter-ions that a name gives are not always drawn. Like-named read-outs stand apart in the source and are kept apart here.

Key:
human PIM2 = human PIM2 (Homo sapiens (Human), UniProt Q9P1W9); test: PIM2 kinase inhibition assay: Dowex technique; type: biochemical; conditions: ATP 4 μM, Aktide 5 μM, enzyme 1.5 nM; read-out: PIM-2 IC50
Method: Method for PIM2 Kinase Inhibition Assay: Dowex Technique
The buffer for PIM2 assay was composed of HEPES 50 mM, at pH 7.5, with 1 mM MgCl2, 1 mM DTT, 3 μM Na3VO4, and 0.2 mg/mL BSA.
Full-length human PIM2 was expressed and purified as described in Fedorov O, et al., PNAS 2007 104, 51, 20523-28. ii. Assay Conditions (Final Concentrations)
Enzyme concentration=1.5 nM; ATP=4 μM; ^33P-γ-ATP=1 nM
Aktide substrate (Chemical Abstract Service Registry Number 324029-01-8)=5 μM iii. Robotized Dowex Assay
See above: same procedure as described for PIM1.

BaF3-PIM1 cells = test: In vitro cell proliferation assay (CellTiter-Glo), BaF3-PIM1; type: cell-based; conditions: 72 hours
Method: (§1) In Vitro Cell Proliferation Assay
(§2) BaF3-PIM1 and MV-4-11 cells were seeded at 125 cells/well and 1250 cells/well respectively in a 384-well white plates in complete medium and treated with compounds dissolved in 0.1% DMSO, 24 h after seeding.
(§3) The cells were incubated at 37° C. and 5% CO2 and after 72 hours the plates were processed using CellTiter-Glo assay (Promega) following the manufacturer's instruction.
(§4) CellTiter-Glo was a homogenous method based on the quantification of the ATP present, an indicator of metabolitically active cells. ATP was quantified using a system based on luciferase and D-luciferin resulting into light generation. The luminescent signal was proportional to the number of cells present in culture.
(§5) Briefly 25 μl/well reagent solution were added to each wells and after 5 minutes shacking microplates were red by Envision (PerkinElmer) luminometer. The luminescent signal was proportional to the number of cells present in culture.
(§6) Inhibitory activity was evaluated comparing treated versus control data using Assay Explorer (MDL) program. IC50 was calculated using sigmoidal interpolation curve.

MV-4-11 cells = test: In vitro cell proliferation assay (CellTiter-Glo), MV-4-11; type: cell-based
Method: as §1
MV-4-11 (biphenotypic B myelomonocytic leukemia) cell line was obtained from ATCC.
Media for MV-4-11 cell line contained RPMI 1640 or EMEM plus 2 mM Glutamine and 10% Fetal bovine serum.
as §2, §3, §4, §5, §6

human PIM1 = human PIM1 (Homo sapiens (Human), UniProt P11309); test: Biochemical assay for inhibitors of PIM1 kinase activity (trans-phosphorylation, Dowex technique); conditions: ATP 200 μM, Aktide 25 μM, enzyme 1 nM; read-out: PIM-1 IC50
Method: Biochemical Assay for Inhibitors of PIM1 Kinase Activity
The inhibitory activity of putative kinase inhibitors and the potency of selected compounds were determined using a trans-phosphorylation assay.
Specific peptide or protein substrates were trans-phosphorylated by their specific ser-thr or tyr kinase in the presence of ATP traced with ^33P-γ-ATP, and in the presence of their own optimal buffer and cofactors.
At the end of the phosphorylation reaction, more than 98% unlabeled ATP and radioactive ATP were captured by an excess of the ion exchange dowex resin; the resin then settled down to the bottom of the reaction plate by gravity. Supernatant was subsequently withdrawn and transferred into a counting plate, then evaluated by β-counting.
Reagents/Assay Conditions i. Dowex Resin Preparation
500 g of wet resin (SIGMA, custom prepared resin DOWEX 1×8 200-400 mesh, 2.5 Kg) were weighed out and diluted to 2 L in 150 mM sodium formate, pH 3.00.
The resin was allowed to settle down (some hours) and then the supernatant was discarded.
After three washes as above over a couple of days, the resin was allowed to settle and two volumes (wrt the resin volume) of 150 mM sodium formate buffer were added.
The pH was then measured and should have been around 3.00.
The washed resin was stable for more than one week; the stock resin was kept at 4° C. before use.
The buffer for PIM1 assay was composed of HEPES 50 mM, at pH 7.5, with 10 mM MgCl2, 1 mM DTT, 3 μM NaVO3, and 0.2 mg/mL BSA.
Full-length human PIM1 was expressed and purified as described in Bullock A N, et al., J. Biol. Chem. 2005, 280, 41675-82.
1.7 μM PIM1 was incubated 1 h at 28° C. in the presence of 125 μM ATP.
ATP concentration: 200 μM; ^33P-γ-ATP: 6 nM; Enzyme concentration: 1 nM Substrate concentration Aktide (Chemical Abstract Service Registry Number 324029-01-8): 25 μM iv. Robotized Dowex Assay
The test mix consisted of:
1) 3× Enzyme mix (done in Kinase Buffer 3×), 5 μL/well
2) 3× substrate and ATP mix (done in ddH2O), together with ^33P-γ-ATP, 5 μL/well 3) 3× test compounds (diluted into ddH2O—3% DMSO)—5 μL/well See below for compound dilution and assay scheme […]
An automated station (Biomek FX, Beckman) was used for serial dilutions, producing 1:3 dilutions in 100% DMSO, from line A1 to A10, for all the compounds in the column.
Data were analyzed by an internally customized version of the “Assay Explorer” SW package, which provided sigmoidal fitting of the ten-dilution curves for IC50 determination in secondary assay/hit confirmation routines.

human PIM2, sequence (Q9P1W9 whole entry): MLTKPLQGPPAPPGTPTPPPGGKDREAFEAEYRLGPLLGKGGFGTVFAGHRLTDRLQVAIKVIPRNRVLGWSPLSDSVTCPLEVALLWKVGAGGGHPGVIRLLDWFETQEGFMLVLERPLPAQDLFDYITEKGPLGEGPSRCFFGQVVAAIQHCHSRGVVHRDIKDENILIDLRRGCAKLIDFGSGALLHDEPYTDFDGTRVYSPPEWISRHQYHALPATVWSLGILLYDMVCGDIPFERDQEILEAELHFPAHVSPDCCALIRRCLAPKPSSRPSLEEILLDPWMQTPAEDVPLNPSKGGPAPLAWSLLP
human PIM1, sequence (P11309 whole entry): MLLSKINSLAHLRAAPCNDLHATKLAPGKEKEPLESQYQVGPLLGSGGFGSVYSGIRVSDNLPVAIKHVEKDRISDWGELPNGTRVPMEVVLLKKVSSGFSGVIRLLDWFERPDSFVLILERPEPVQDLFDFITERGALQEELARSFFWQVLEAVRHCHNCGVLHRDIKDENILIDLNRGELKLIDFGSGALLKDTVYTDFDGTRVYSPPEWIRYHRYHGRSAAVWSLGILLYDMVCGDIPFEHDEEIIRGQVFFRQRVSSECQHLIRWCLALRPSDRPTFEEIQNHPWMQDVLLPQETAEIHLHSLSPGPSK

| IC50 (human PIM2) [nM] | IC50 (BaF3-PIM1 cells) [nM] | IC50 (MV-4-11 cells; Homo sapiens, MV4-11, 72 hours) [nM] | IC50 (human PIM1) [nM] | IC50 (MV-4-11 cells; 72 hours, read-out: MV4-11 IC50) [nM] | SMILES |
| --- | --- | --- | --- | --- | --- |
| 24 | 125 | 433 | 12 | – | CCOc1ccc(-c2c(-c3cccc(OC(F)(F)F)c3)cc3n2[C@@H](CCN)CNC3=O)cc1F [Compound 127, (4S)-4-(2-aminoethyl)-6-(4-ethoxy-3-fluorophenyl)-7-[3-(trifluoromethoxy)phenyl]-3,4-dihydropyrrolo[1,2-a]pyrazin-1(2H)-one hydrochloride] |
| 46 | 76 | 812 | 3 | – | CN(C)c1ccc(-c2c(-c3cccc(OC(F)(F)F)c3)cc3n2[C@@H](CCN)CNC3=O)cc1 [Compound 115, (4S)-4-(2-aminoethyl)-6-[4-(dimethylamino)phenyl]-7-[3-(trifluoromethoxy)phenyl]-3,4-dihydropyrrolo[1,2-a]pyrazin-1(2H)-one hydrochloride] |
| 77 | 140 | 3600 | 17 | – | NCCC1CNC(=O)c2cc(-c3cc(Cl)ccc3F)c(-c3ccsc3)n21 (centres unmarked) [Compound 55, 4-(2-aminoethyl)-7-(5-chloro-2-fluorophenyl)-6-(thiophen-3-yl)-3,4-dihydropyrrolo[1,2-a]pyrazin-1(2H)-one hydrochloride] |
| 12 | 198 | 710 | 3 | – | COc1ccc(-c2c(-c3cccc(OC(F)(F)F)c3)cc3n2[C@@H](CCN)CNC3=O)cc1Cl [Compound 129, (4S)-4-(2-aminoethyl)-6-(3-chloro-4-methoxyphenyl)-7-[3-(trifluoromethoxy)phenyl]-3,4-dihydropyrrolo[1,2-a]pyrazin-1(2H)-one hydrochloride] |
| 32 | 175 | – | 8 | 470 | COc1c(C)cc(-c2c(-c3cccc(OC(F)(F)F)c3)cc3n2[C@@H](CCN)CNC3=O)cc1C [Compound 128, 4S)-4-(2-aminoethyl)-6-(4-methoxy-3,5-dimethyl phenyl)-7-[3-(trifluoromethoxy)phenyl]-3,4-dihydropyrrolo[1,2-a]pyrazin-1(2H)-one hydrochloride] |
| 97 | 304 | 940 | 44 | – | NCC[C@H]1CNC(=O)c2cc(-c3cccc(OC(F)(F)F)c3)c(-c3cccc(C(F)(F)F)c3)n21 [Compound 125, (4S)-4-(2-aminoethyl)-7-[3-(trifluoromethoxy)phenyl]-6-[3-(trifluoromethyl)phenyl]-3,4-dihydropyrrolo[1,2-a]pyrazin-1(2H)-one hydrochloride] |
| 102 | 3960 | 3170 | 41 | – | Cc1cccc(-c2c(-c3ccnc(Cl)c3)cc3n2C(CCN)CNC3=O)c1 (centres unmarked) [Compound 45, 4-(2-aminoethyl)-7-(2-chloropyridin-4-yl)-6-(3-methylphenyl)-3,4-dihydropyrrolo[1,2-a]pyrazin-1(2H)-one hydrochloride] |
| 21 | 125 | 776 | 13 | – | NCC[C@H]1CNC(=O)c2cc(-c3cccc(OC(F)(F)F)c3)c(-c3cccc(Cl)c3)n21 [Compound 126, (4S)-4-(2-aminoethyl)-6-(3-chlorophenyl)-7-[3-(trifluoromethoxy)phenyl]-3,4-dihydropyrrolo[1,2-a]pyrazin-1(2H)-one hydrochloride] |
| 15 | 147 | 2200 | 5 | – | Cc1cccc(-c2c(-c3cccc(OC(F)(F)F)c3)cc3n2[C@@H](CCN)CNC3=O)c1 [Compound 92, (4S)-4-(2-aminoethyl)-6-(3-methylphenyl)-7-[3-(trifluoromethoxy)phenyl]-3,4-dihydropyrrolo[1,2-a]pyrazin-1(2H)-one hydrochloride] |
| 153 | 1180 | 2930 | 11 | – | NCCC[C@H]1CNC(=O)c2cc(-c3cccc(OC(F)(F)F)c3)c(-c3ccsc3)n21 [Compound 103, (4S)-4-(3-aminopropyl)-6-(thiophen-3-yl)-7-[3-(trifluoromethoxy)phenyl]-3,4-dihydropyrrolo[1,2-a]pyrazin-1(2H)-one hydrochloride] |
| 102 | 3030 | – | 20 | – | NCCC1CNC(=O)c2cc(-c3cccc(C(F)(F)F)c3)c(-c3ccc(CO)cc3)n21 (centres unmarked) [Compound 38, 4-(2-aminoethyl)-6-[4-(hydroxymethyl)phenyl]-7-[3-(trifluoromethyl)phenyl]-3,4-dihydropyrrolo[1,2-a]pyrazin-1(2H)-one hydrochloride] |
| 110 | 6570 | – | 24 | – | NCCC1CNC(=O)c2cc(-c3ccnc(Cl)c3)c(-c3ccc(CO)cc3)n21 (centres unmarked) [Compound 44, 4-(2-aminoethyl)-7-(2-chloropyridin-4-yl)-6-[4-(hydroxymethyl)phenyl]-3,4-dihydropyrrolo[1,2-a]pyrazin-1(2H)-one hydrochloride] |
| 13 | 6450 | – | 1 | – | CN1CCN(Cc2ccc(-c3c(-c4cccc(OC(F)(F)F)c4)cc4n3[C@@H](CCCN)CNC4=O)cc2)CC1 [Compound 135, (4S)-4-(3-aminopropyl)-6-{4-[(4-methylpiperazin-1-yl)methyl]phenyl}-7-[3-(trifluoromethoxy)phenyl]-3,4-dihydropyrrolo[1,2-a]pyrazin-1(2H)-one dihydrochloride] |
| 16 | 699 | – | 1 | – | NCC[C@H]1CNC(=O)c2cc(-c3cccc(OC(F)(F)F)c3)c(-c3ccc(O)cc3)n21 [Compound 93, (4S)-4-(2-aminoethyl)-6-(4-hydroxyphenyl)-7-[3-(trifluoromethoxy)phenyl]-3,4-dihydropyrrolo[1,2-a]pyrazin-1(2H)-one hydrochloride] |
| 3 | 5470 | – | 1 | – | CS(=O)(=O)c1ccc(-c2c(-c3cccc(OC(F)(F)F)c3)cc3n2[C@@H](CCN)CNC3=O)cc1 [Compound 96, (4S)-4-(2-aminoethyl)-6-[4-(methylsulfonyl)phenyl]-7-[3-(trifluoromethoxy)phenyl]-3,4-dihydropyrrolo[1,2-a]pyrazin-1(2H)-one hydrochloride] |
| 36 | 53 | – | 23 | – | COc1ccc(-c2c(-c3cccc(OC(F)(F)F)c3)cc3n2[C@@H](CCN)CNC3=O)cc1F [Compound 113, (4S)-4-(2-aminoethyl)-6-(3-fluoro-4-methoxyphenyl)-7-[3-(trifluoromethoxy)phenyl]-3,4-dihydropyrrolo[1,2-a]pyrazin-1(2H)-one hydrochloride] |

| SMILES | IC50 (human PIM2) [nM] | IC50 (BaF3-PIM1 cells) [nM] | IC50 (MV-4-11 cells; Homo sapiens, MV4-11, 72 hours) [nM] | IC50 (human PIM1) [nM] | IC50 (MV-4-11 cells; 72 hours, read-out: MV4-11 IC50) [nM] |
| --- | --- | --- | --- | --- | --- |
| CN(C)Cc1ccc(-c2c(-c3cccc(OC(F)(F)F)c3)cc3n2C(CCCl)CNC3=O)cc1 (centres unmarked) [Compound 70, 4-(2-chloroethyl)-6-{4-[(dimethylamino)methyl]phenyl}-7-[3-(trifluoromethoxy)phenyl]-3,4-dihydropyrrolo[1,2-a]pyrazin-1(2H)-one trifluoroacetate] | 113 | 418 | 1500 | 16 | – |
